# Source: US10696615B2, “Prenylated hydroxystilbenes” (The University of Sydney, priority 2011, dated 2020)
# Key:
# T-47D = assay: NCI in vitro cancer screen, Breast Cancer; type: cell-based, human
# NCI-H23 = assay: NCI in vitro cancer screen, Non-Small Cell Lung Cancer; type: cell-based, human; conditions: NCI-H23
# SF-539 = assay: NCI in vitro cancer screen, CNS Cancer; type: cell-based; conditions: SF-539
# ADR-RES (NCI/ADR-RES) = assay: NCI in vitro cancer screen, Ovarian Cancer; type: cell-based, human
# OVCAR-5 = assay: NCI in vitro cancer screen, Ovarian Cancer; type: cell-based, human; conditions: OVCAR-5
# HOP-62 = assay: NCI in vitro cancer screen, Non-Small Cell Lung Cancer; type: cell-based, human; conditions: HOP-62
# UACC-62 = assay: NCI in vitro cancer screen, Melanoma; type: cell-based, human; conditions: UACC-62
# UO-31 = assay: NCI in vitro cancer screen, Renal Cancer; type: cell-based, human; conditions: UO-31
# SF-268 = assay: NCI in vitro cancer screen, CNS Cancer; type: cell-based, human; conditions: SF-268
# SN12C = assay: NCI in vitro cancer screen, Renal Cancer; type: cell-based, human
# MALME-3M = assay: NCI in vitro cancer screen, Melanoma; type: cell-based, human
# HCT-15 = assay: NCI in vitro cancer screen, Colon Cancer; type: cell-based, human; conditions: HCT-15
# KM12 = assay: NCI in vitro cancer screen, Colon Cancer; type: cell-based, human; conditions: KM12
# SK-MEL-2 = assay: NCI in vitro cancer screen, Melanoma; type: cell-based, human; conditions: SK-MEL-2
# RPMI-8226 = assay: NCI in vitro cancer screen, Leukemia; type: cell-based, human; conditions: RPMI-8226
# A498 = assay: NCI in vitro cancer screen, Renal Cancer; type: cell-based, human; conditions: A498
# HL-60 (TB) = assay: NCI in vitro cancer screen, Leukemia; type: cell-based, human; conditions: HL-60 (TB)
# HOP-92 = assay: NCI in vitro cancer screen, Non-Small Cell Lung Cancer; type: cell-based, human; conditions: HOP-92
# HT29 = assay: NCI in vitro cancer screen, Colon Cancer; type: cell-based, human; conditions: HT29
# MOLT-4 = assay: NCI in vitro cancer screen, Leukemia; type: cell-based, human; conditions: MOLT-4
# LOX IMVI = assay: NCI in vitro cancer screen, Melanoma; type: cell-based, human
# OVCAR-4 = assay: NCI in vitro cancer screen, Ovarian Cancer; type: cell-based, human; conditions: OVCAR-4
# COLO 205 = assay: NCI in vitro cancer screen, Colon Cancer; type: cell-based, human; conditions: COLO 205
# U251 = assay: NCI in vitro cancer screen, CNS Cancer; type: cell-based, human; conditions: U251
# TK-10 = assay: NCI in vitro cancer screen, Renal Cancer; type: cell-based, human; conditions: TK-10
# PC-3 = assay: NCI in vitro cancer screen, Prostate Cancer; type: cell-based, human; conditions: PC-3
# CAKI-1 = assay: NCI in vitro cancer screen, Renal Cancer; type: cell-based, human; conditions: CAKI-1
# NCI-H460 = assay: NCI in vitro cancer screen, Non-Small Cell Lung Cancer; type: cell-based, human; conditions: NCI-H460
# [1] = Homo sapiens, read-out: LC50 (the source's name)
smiles,measurement,setting,value
"CC(C)=CCOc1cc(O)cc(/C=C/c2ccc(O)c(O)c2)c1 [USYDS4, (E)-3-(3-methyl-2-butenyloxy)-3′,4′,5-trihydroxystilbene]",TGI,T-47D,6.93 µM
same,GI50,"T-47D; Homo sapiens, T47D",2.13 µM
same,CC50,"T-47D; Homo sapiens, T47D, read-out: LC50 (the source's name)",> 100 µM
same,GI50,NCI-H23; Homo sapiens,3.42 µM
same,LC50,NCI-H23; Homo sapiens,81.9 µM
same,TGI,NCI-H23,20.8 µM
same,GI50,SF-539; Homo sapiens,3.45 µM
same,CC50,SF-539; [1],97.5 µM
same,TGI,SF-539,22.3 µM
same,TGI,ADR-RES (NCI/ADR-RES); ADR-RES,48.3 µM
same,GI50,"ADR-RES (NCI/ADR-RES); Homo sapiens, NCI/ADR-RES",1.11 µM
same,CC50,"ADR-RES (NCI/ADR-RES); Homo sapiens, NCI/ADR-RES, read-out: LC50 (the source's name)",> 100 µM
same,GI50,OVCAR-5; Homo sapiens,15.9 µM
same,CC50,OVCAR-5; [1],> 100 µM
same,TGI,OVCAR-5,51.4 µM
same,TGI,HOP-62,26.3 µM
same,GI50,HOP-62; Homo sapiens,6.49 µM
same,CC50,HOP-62; [1],83.4 µM
same,GI50,UACC-62; Homo sapiens,4.53 µM
same,CC50,UACC-62; [1],44.4 µM
same,TGI,UACC-62,16.8 µM
same,GI50,UO-31; Homo sapiens,3.31 µM
same,CC50,UO-31; [1],66.4 µM
same,TGI,UO-31,20.7 µM
same,GI50,SF-268; Homo sapiens,3.89 µM
same,CC50,SF-268; [1],> 100 µM
same,TGI,SF-268,23.2 µM
same,TGI,SN12C,20.0 µM
same,GI50,SN12C; Homo sapiens,3.94 µM
same,CC50,SN12C; [1],74.1 µM
same,GI50,"MALME-3M; Homo sapiens, Malme-3M",7.25 µM
same,CC50,"MALME-3M; Homo sapiens, Malme-3M, read-out: LC50 (the source's name)",> 100 µM
same,TGI,MALME-3M; MALME-3M,30.6 µM
same,TGI,HCT-15,34.9 µM
same,GI50,HCT-15; Homo sapiens,1.77 µM
same,CC50,HCT-15; [1],> 100 µM
same,GI50,KM12; Homo sapiens,3.27 µM
same,CC50,KM12; [1],46.5 µM
same,TGI,KM12,14.2 µM
same,GI50,SK-MEL-2; Homo sapiens,2.18 µM
same,LC50,SK-MEL-2; Homo sapiens,31 µM
same,TGI,SK-MEL-2,6.57 µM
same,GI50,RPMI-8226; Homo sapiens,2.35 µM
same,CC50,RPMI-8226; [1],> 100 µM
same,TGI,RPMI-8226,25.4 µM
same,TGI,A498,23.5 µM
same,GI50,A498; Homo sapiens,9.07 µM
same,CC50,A498; [1],55.2 µM
same,TGI,HL-60 (TB),6.04 µM
same,GI50,HL-60 (TB); Homo sapiens,2.59 µM
same,CC50,HL-60 (TB); [1],> 100 µM
same,TGI,HOP-92,13.6 µM
same,GI50,HOP-92; Homo sapiens,1.92 µM
same,CC50,HOP-92; [1],62.3 µM
same,TGI,HT29,32.5 µM
same,GI50,"HT29; Homo sapiens, HT-29",16.3 µM
same,CC50,"HT29; Homo sapiens, HT-29, read-out: LC50 (the source's name)",64.7 µM
same,GI50,MOLT-4; Homo sapiens,4.31 µM
same,CC50,MOLT-4; [1],> 100 µM
same,TGI,MOLT-4,21.6 µM
same,TGI,LOX IMVI,19.3 µM
same,GI50,LOX IMVI; Homo sapiens,3.82 µM
same,CC50,LOX IMVI; [1],58.5 µM
same,GI50,OVCAR-4; Homo sapiens,3.98 µM
same,CC50,OVCAR-4; [1],> 100 µM
same,TGI,OVCAR-4,50.4 µM
same,TGI,COLO 205,23.0 µM
same,GI50,COLO 205; Homo sapiens,9.72 µM
same,CC50,COLO 205; [1],53.5 µM
same,GI50,"U251; Homo sapiens, U-251",3.67 µM
same,CC50,"U251; Homo sapiens, U-251, read-out: LC50 (the source's name)",45.5 µM
same,TGI,U251,15.6 µM
same,GI50,TK-10; Homo sapiens,3.87 µM
same,LC50,TK-10; Homo sapiens,> 100 µM
same,TGI,TK-10,9.66 µM
same,GI50,PC-3; Homo sapiens,4.47 µM
same,CC50,PC-3; [1],87.9 µM
same,TGI,PC-3,22.0 µM
same,TGI,CAKI-1,>100 µM
same,GI50,CAKI-1; Homo sapiens,5.25 µM
same,CC50,CAKI-1; [1],> 100 µM
same,GI50,NCI-H460; Homo sapiens,3.65 µM
same,CC50,NCI-H460; [1],> 100 µM
same,TGI,NCI-H460,20.3 µM
